Here are results for 5 compounds from US10125097B2, “1- [1-(benzoyl)-pyrrolidine-2-carbonyl]-pyrrolidine-2-carbonitrile derivatives” (UNIVERSITAT DE BARCELONA, priority 2012, dated 2018).

Data set [1] can be described thus: Parallel artificial membrane permeability assay (PAMPA). The class given is in vitro ADME. The following applies: 200 μM initial concentration, pH 7.4, 4 hours, room temperature; for Papp at 4 h, 200 μM: PAMPA, read-out: Effective permeability Pe. As to the method:
Parallel artificial membrane permeability assay (PAMPA) described in Kansy M et al., J. Med. Chem. 1998; 41(7):1007-10 was used to determine the capacity of compounds to cross the Blood-Brain Barrier (BBB) by passive diffusion (Di L et al., Eur. J. Med. Chem. 2003; 38(3):223-32). The effective permeability (Pe) of the compounds was measured at an initial concentration of 200 μM. The buffer solution was prepared from a commercial concentrated one following the manufacturer's instructions. pH was adjusted to 7.4 using a 0.5 M NaOH solution. A stock solution of new compound was prepared in DMSO and diluted with buffer solution to a final 200 μM concentration (0.5% DMSO content). The PAMPA sandwich was separated and each donor well was filled with 200 μL of the compound solution. The acceptor plate was placed into the donor plate, ensuring that the underside of the membrane was in contact with buffer. 4 μL of the mixture of phospholipids (20 mg/mL) in dodecane was added to the filter of each well, and 200 μL of buffer solution was added to the each acceptor well. The plate was covered and incubated at room temperature in a saturated humidity atmosphere for 4 hours under orbital agitation at 100 rpm. After 4 hours, the contents of the acceptor and donor compartments were analyzed by HPLC: 150 μL of each well from the donor plate and 150 μL of each well from the acceptor plate were transferred to HPLC vials, injecting each sample into a reverse-phase C18 column (150 mm×4.6 mm×5 μm, 100 Å) (100 μL/injection from the acceptor wells, 10 μL/injection from the donor wells and for t0 references). Transport was also confirmed by MALDI-TOF spectrometry.
The phospholipid mixture used was a porcine polar brain lipid extract, provided by Avanti polar lipids, with the following composition: 12.6% phosphatidylcholine (PC), 33.1% phosphatidylethanolamine (PE), 18.5% phosphatidylserine (PS), 4.1% phosphatidylinositol (PI), 0.8% phosphatidic acid and 30.9% of other compounds.
The effective permeability (Pe) after 4 hours was calculated using equation 2 and the percentage of transport was calculated using equation 3:
[formula] wherein: t is time (h) CA(t) is the compound concentration in the acceptor well at time t and CD(to) is the compound concentration in the donor well at to.
(In general: PAMPA measures passive passage across an artificial lipid membrane.)

Data set [2] deals with human prolyl oligopeptidase (Homo sapiens (Human), UniProt P48147). The data set can be described thus: POP inhibition assay (Z-G-P-AMC substrate, fluorimetric). It is filed as biochemical. The following applies: Conditions B: 100 mM Tris-acetate, 10 mM BSA, 1 mM DTT, pH 7.3, hPOP 10 nM; read-out: IC50, inhibition of human prolyl oligopeptidase, measured in conditions B. As to the method: Expression and Purification of Prolyl Oligopeptidase (POP)
Sequence of human prolyl oligopeptidase (P48147 whole entry, the tested form may be a part): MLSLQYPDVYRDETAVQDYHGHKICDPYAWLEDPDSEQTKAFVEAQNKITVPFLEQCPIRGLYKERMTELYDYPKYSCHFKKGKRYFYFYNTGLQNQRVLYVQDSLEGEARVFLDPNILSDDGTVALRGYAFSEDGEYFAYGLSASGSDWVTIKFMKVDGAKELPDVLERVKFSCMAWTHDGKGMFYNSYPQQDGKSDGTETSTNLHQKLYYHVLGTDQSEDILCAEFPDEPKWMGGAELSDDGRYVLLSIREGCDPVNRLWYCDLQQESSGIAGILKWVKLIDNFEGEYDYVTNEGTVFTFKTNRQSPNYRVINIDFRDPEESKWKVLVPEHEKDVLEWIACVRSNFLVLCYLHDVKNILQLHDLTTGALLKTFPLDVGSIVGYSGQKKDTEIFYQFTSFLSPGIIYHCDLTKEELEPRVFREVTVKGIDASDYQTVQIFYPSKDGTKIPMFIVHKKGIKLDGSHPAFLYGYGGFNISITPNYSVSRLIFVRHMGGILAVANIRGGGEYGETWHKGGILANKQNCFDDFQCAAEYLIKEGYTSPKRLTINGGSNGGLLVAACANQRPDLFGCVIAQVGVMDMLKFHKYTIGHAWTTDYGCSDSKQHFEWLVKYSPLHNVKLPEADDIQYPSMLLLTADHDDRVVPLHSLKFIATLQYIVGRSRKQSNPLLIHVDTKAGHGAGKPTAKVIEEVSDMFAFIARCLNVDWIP
POP was obtained by expression in E. coli and affinity purification using a His tail fusion according to a literature procedure (Tarragó T et al., ChemBioChem 2006; 7:827-33) summarized below:
hPOP expression: E. coli BL21 competent cells were transformed with pETM10 hPOP. To induce expression, a pre-culture of LB medium (50 mL) containing kanamycin (50 μg/mL) was inoculated with one colony and was grown overnight at 37° C. Next day, two cultures of LB medium (500 mL) were inoculated with the overnight culture (10 mL). The inoculated cultures were grown at 37° C. and 220 rpm until the OD595 was 1.2 (2.5-3 hours). IPTG was then added (final concentration of 1 mM) and induction was performed overnight at 25° C. Cells were harvested (3500 g, 15 min, 4° C.) and the pellet was suspended in suspension buffer (50 mL) [Tris-HCl pH 8 (50 mM), NaCl (300 mM), imidazole (1 mM)] and sonicated with use of four cycles (each consisting of 15 sec of sonication and 15 sec of rest) at an intensity of 50% and 0.5 pulses, the sample being kept on ice. After sonication, the sample was centrifuged (40 000 g, 30 min, 4° C.) and the supernatant was used immediately for POP purification. An ÁKTA explorer FPLC system was used for purification. The supernatant was applied at a flow of 1 mL/min to a HiTrapQuelating column (5 mL) previously equilibrated with 5 column volumes of suspension buffer. The column was washed with suspension buffer until the absorbance at 280 nm returned to basal level. The column was then rinsed with 5 volumes of washing buffer (50 mM Tris-HCl, pH 8, 300 mM NaCl, 30 mM imidazole). The elution was performed with 4 volumes of elution buffer (50 mM Tris-HCl, pH 8, 300 mM NaCl, 500 mM imidazole). Fractions (4 mL) were collected during the entire elution. POP activity was checked in all fractions and positive ones were analyzed by SDS-PAGE and stained with Biosafe Comassie Stain G-250. Positive fractions were collected and desalted by use of a HiPrep 26/10 Desalting column with Tris-HCl (50 mM, pH 8) as buffer. Recombinant hPOP was quantified with the Bio-Rad Protein Assay with BSA as standard. Aliquots of the recombinant enzyme were prepared and immediately frozen with liquid nitrogen and stored at −80° C.
POP activity was determined following the method described by Toide et al (Toide K et al., J. Pharmacol. Exp. Ther. 1995; 274:1370-8), using Z-G-P-AMC (N-benzyloxycarbonyl-Gly-Pro-methylcoumarinyl-7-amide) as POP substrate. The reactions were performed in 96-well microtiter plates, which allowed simultaneous monitoring of multiple reactions. For each reaction, activity buffer (134 μl, 100 mM Na/K phosphate buffer, pH 8.0) was pre-incubated for 15 min at 37° C. with hPOP (ranging from 20 to 60 nM, depending on the activity of the hPOP batch) and the corresponding new compound solution (3 μl). A stock solution of new compound was prepared in DMSO (100 mM), and dilutions were prepared from this stock solution with DMSO. Alternatively, the reactions were performed using another activity buffer (141 μL, 100 mM Tris-acetate, […], 1 mM DTT, pH 7.3), pre-incubating with hPOP (10 nM) and the corresponding new compound solution (3 μl) (Conditions B).
After preincubation, Z-G-P-AMC (10 μl, 3 mM in 40% 1,4-dioxane) was added (3 μl, 1.5 mM in 40% of 1,4-dioxane, in Conditions B), and the reaction was incubated for 1 hour at 37° C. The reaction was stopped by adding sodium acetate (150 μl, 1 M, pH 4) and the formation of AMC was measured fluorimetrically. The excitation and emission wavelengths were 360/40 and 485/20 nm, respectively.
Several concentration points (ranging from 25 μM to 400 μM) were measured for each compound. The inhibitory activity on prolyl oligopeptidase was calculated according to eq 1. For each new compound, the fluorescence in the presence (a) and in the absence of hPOP (b) was measured. […]

For another data set, the target named is POP (Homo sapiens (Human), UniProt P48147). The following applies: non-competitive POP inhibitor; Park D H et al., Fitoterapia 2010; read-out: IC50 (POP inhibition); cited from earlier work.
Sequence of POP (P48147 whole entry): as the sequence (P48147 whole entry, the tested form may be a part) above

The term IC50 denotes the point on the concentration scale where inhibition reaches its midpoint. Consider `N#C[C@@H]1CCCN1C(=O)[C@@H]1CC(F)(F)CN1C(=O)c1cccc(OCc2ccccc2)c1` [Example 18, (S)-1-((S)-1-(3-(benzyloxy)benzoyl)-4,4-difluoropyrrolidine-2-carbonyl)pyrrolidine-2-carbonitrile], for which, in data set [1], the “% T (percentage of transport)” value worked out at 11.91% and the Papp at 4 h, 200 μM stood at 6.51 ×10⁻⁶ cm/s. The IC50 in data set [2] was 487 nM.

`N#C[C@@H]1CCCN1C(=O)[C@@H]1CC(F)(F)CN1C(=O)c1ccccc1OCc1ccccc1` [Example 19, (S)-1-((S)-1-(2-(benzyloxy)benzoyl)-4,4-difluoropyrrolidine-2-carbonyl)pyrrolidine-2-carbonitrile]: in data set [1], the “% T (percentage of transport)” value worked out at 17.55% and the Papp at 4 h, 200 μM was determined as 10.3 ×10⁻⁶ cm/s. Moreover, the IC50 in data set [2] amounted to 255 nM.

Regarding `N#C[C@@H]1CCCN1C(=O)[C@@H]1CC(F)(F)CN1C(=O)c1ccc(OCc2ccccc2)c(C(F)(F)F)c1` [Example 20, (S)-1-((S)-1-(4-(benzyloxy)-3-(trifluoromethyl)benzoyl)-4,4-difluoropyrrolidine-2-carbonyl)pyrrolidine-2-carbonitrile], in data set [1], the “% T (percentage of transport)” value was found to be 2.64% and the Papp at 4 h, 200 μM stood at 1.29 ×10⁻⁶ cm/s. Besides, the IC50 in data set [2] is 4.5 nM.

Consider `N#C[C@@H]1CCCN1C(=O)[C@@H]1CC(F)(F)CN1C(=O)c1ccc(OCc2ccccc2)c(F)c1` [Example 21, (S)-1-((S)-1-(4-(benzyloxy)-3-fluorobenzoyl)-4,4-difluoropyrrolidine-2-carbonyl)pyrrolidine-2-carbonitrile], for which, in data set [1], the “% T (percentage of transport)” value is reported as 10.43% and the Papp at 4 h, 200 μM was 5.57 ×10⁻⁶ cm/s. Also, in data set [2], the IC50 was 5 nM.

Turning to `O=C(/C=C/c1ccc(O)c(O)c1)O[C@H](Cc1ccc(O)c(O)c1)C(=O)O` [rosmarinic acid], the IC50 on POP is 63700 nM.
